How the values were obtained:
SH-SY5Y and PC12 cells = experiment: MTT (cell viability) test, SNP-induced cell death; format: cell-based
SH-SY5Y cells [1] = experiment: Inhibition of ROS production (DCFH-DA fluorescence); format: cell-based, human; conditions: hydrogen peroxide-induced, 2 hours pretreatment
Method: (§1) The incubator was maintained at a temperature of 37° C., and a mixed gas of 95% air and 5% CO2 was continuously supplied thereto to provide suitable conditions for cell culture. The cells were cultured in a 6-well plate or a 96-well plate at each of densities of 1×10^6 and 2×10^4 cells/well 24 hours before the experiment. […] Sulfuretin was used in ethanol and used at a final concentration of 0.1% or less.
In order to measure ROS elimination activity, cells were labeled with DCFH-DA fluorescence, and quantitative analysis was performed using a fluorescence meter.
Specifically, the 6-well plate in which the cells have been cultured was pretreated with sulfuretin for 2 hours, and then reacted with hydrogen peroxide for 30 minutes to induce ROS. Then, 10 μl of 10 mM DCFH-DA was added to the plate and allowed to react with the cells for 30 minutes. Herein, DCFH-DA in the incubator was covered with a foil such that it would not be exposed to light. The cells that reacted with the DCFH-DA fluorescent substance were detached using cold PBS and centrifuged at 400 g for 3 minutes. The centrifugation process was repeated twice to wash the fluorescent substance. The washed cells were briefly stirred with 1 ml of PBS, and 100 μl was dispensed into each of a fresh 96-well plate. Then, fluorescence was measured at an excitation wavelength of 488 nm and an emission wavelength of 515 nm using a fluorescence meter (Perkinelmer, USA).
The measured value was substituted into the following equation to calculate ROS production:
ROS production (%)=[(O.D. of control−O.D. of test group)/O.D. of control]×100

PARP = experiment: Western blot, PARP expression; format: cell-based, human; conditions: SH-SY5Y cells
Method: as §1
In order to identify the effect of sulfuretin on the expression of proteins related to dementia, Alzheimer's disease, Parkinson's disease and strokes, a Western blot test was carried out.
After 24 hours, the supernatant of each well was collected and centrifuged at 400 g for 3 minutes, and the cells were washed with cold PBS and lysed with 100 μl of T-PER lysis buffer (Thermo, USA) for 30 minutes. The lysates were centrifuged at 10000 g at 4° C. for 15 minutes, and the supernatants were stored at […] until use as test samples. Proteins were quantitatively analyzed using a BCA assay kit (Thermo, USA) and separated within 8.5-12% SDS gel and then transferred to PVDF membranes. To examine the expression of the proteins, the development of fluorescence was analyzed by enhanced chemiluminescence (ECL). Specifically, the membrane was blocked with 5% skimmed non-fat milk for 1 hour and labeled with the primary antibodies, PARP, caspase-3, phospho-p38, phospho-JNK and β-actin at 4° C. overnight. Then, the membrane was washed three times with Tris-tween buffered saline (TTBS), and then labeled with horseradish peroxidase (HRP)-conjugated anti-rabbit and anti-mouse secondary antibodies at room temperature for 1 hour. Then, the membrane was washed five times with TTBS for 10 minutes. The washed film was developed by ECL using x-ray films, and concentrations were quantitatively analyzed using quantitative analysis program (Fujifilm, Japan).

mice = experiment: Scopolamine-induced learning and memory deficits, step-through passive avoidance test; format: in vivo
Method: Male ICR mice (4-weeks-old, 18-20 g) were purchased from Koatech Co., Ltd. (Pyongtaek, Korea). Mice were housed 10 per cage, allowed access to water and food ad libitum, and maintained in constant temperature (23±1° C.) and humidity (55±5%) conditions under a 12 hour light/dark cycle (lights on 07:00 to 19:00 h). All experiments were conducted in accord with the NIH Guide for the Care and Use of Laboratory Animals and with the approval of the Institutional Animal Care and Use Committee of Sungkyunkwan University.
Assessment of the training or test trials of the passive avoidance test was carried out in identical illuminated and non-illuminated compartments (12×10×12 cm) containing 2-mm stainless steel rods spaced 0.5 cm apart. A 50 W lamp positioned 1 meter above both chambers illuminated the apparatuses. Briefly, the mice underwent two separate trials, a training trial and a test trial 24 hours later. For the training trial, mice were initially placed in the clear chamber. When they entered the dark chamber, the door closed and a 3-sec electrical foot shock (0.5 mA) was delivered through the stainless steel rods. One hour before each training trial, mice were given sulfretin (0.25, 0.5, or 1 mg/kg, p.o.). After 30 minutes, memory impairment was induced by administering scopolamine (0.5 mg/kg, i.p.). Twenty-four hours after the training trial, mice were placed in the illuminated chamber for the test trial. The time for the mouse to enter the dark compartment after the door opening was defined as latency for both training and test trials. Latencies were recorded for up to 300 s. To avoid a ceiling effect in unimpaired animals, sulfuretin alone was administered 1 hour before the training trial without scopolamine treatment. The intensity of electrical foot shock was set at 0.25 mA for 3 seconds. This lower intensity shock allowed for a behavioral window through which to detect any enhancing effect of sulfuretin.

SH-SY5Y cells [2] = experiment: MTT assay, amyloid beta25-35-induced cell death; format: cell-based, human; conditions: pretreated with sulfuretin at 2.5, 5, 10 and 20 μM for 30 minutes, then 20 μM amyloid beta25-35 for 24 hours (p<0.05 and p<0.001)
Method: For the experiments shown in FIGS. 11 to 13, SH-SY5Y and stable swedish APP mutant SH-SY5Y cells were grown in DMEM supplemented with 10% heat-inactivated FBS and 0.1% penicillin/streptomycin at 37° C. in a humidified atmosphere of 5% CO2 and 95% air. Cells were fed every three days and sub-cultured once they reached 80-90% confluency in […] cell culture dishes. Amyloid beta25-35 was prepared as a 20 mM stock immediately before use and diluted in PBS to the indicated final concentration. Prior to use, amyloid beta25-35 was dissolved in sterilized distilled water and was aggregated at 37° C. for five days. The test compounds were dissolved in DMSO and the stock solutions were added directly to the culture media to a final concentration of 0.1% (v/v) DMSO.
First of all, MTT assay was performed to determine the neuroprotective effects of sulfuretin on amyloid beta25-35-induced cell death. […] The dark-blue formazan crystals formed in intact cells were dissolved in DMSO, and the absorbance at 540 nm was measured with a microplate reader (SpectraMax 250, Molecular Device, Sunnyvale, Calif., USA). The results were expressed as the percentage of MIT reduction relative to the absorbance of control cells.

Work on O=C1/C(=C/c2ccc(O)c(O)c2)Oc2cc(O)ccc21 [sulfuretin] yielded a viability at 0.1 µg/mL (SH-SY5Y and PC12 cells; sulfuretin 0.1 μg/ml) of no less than 44%, a viability at 0.5 µg/mL (SH-SY5Y and PC12 cells; sulfuretin 0.5 μg/ml) of no less than 56% and a viability at 1 µg/mL (SH-SY5Y and PC12 cells; sulfuretin 1 μg/ml) of no less than 64%. The viability at 5 µg/mL (SH-SY5Y and PC12 cells; sulfuretin 5 μg/ml) was no less than 163%, the ROS production (SH-SY5Y cells [1]; sulfuretin 0.1 μg/ml) was no more than 147% and the ROS production (SH-SY5Y cells [1]; sulfuretin 0.5 μg/ml) was no more than 126%. For the same molecule, the ROS production (SH-SY5Y cells [1]; sulfuretin 1 μg/ml) was no more than 123%, the ROS production (SH-SY5Y cells [1]; sulfuretin 5 μg/ml) was no more than 103% and the PARP expression (PARP; hydrogen peroxide + sulfuretin 0.1 μg/ml) was no less than 70%. For the same molecule, the PARP expression (PARP; hydrogen peroxide + sulfuretin 0.5 μg/ml) was no less than 92%, the PARP expression (PARP; hydrogen peroxide + sulfuretin 1 μg/ml) was no less than 99% and the “scopolamine-induced decrease of step-through latency time (test trial)” value (mice; sulfuretin 1 mg/kg, p.o., one hour before training trial, scopolamine 0.5 mg/kg, i.p. (p<0.05)) was “blocked this decrease”. The “latencies during the training trials” value (mice; sulfuretin p.o., training trial) was “did not change” and the “cell viability (MTT reduction)” value (SH-SY5Y cells [2]) was “significantly increased”.

Source: patent US20150031760A1, “PHARMACEUTICAL COMPOSITION FOR PREVENTING OR TREATING NERVOUS SYSTEM DISORDERS COMPRISING SULFURETIN OR PHARMACEUTICALLY ACCEPTABLE SALT THEREOF” (Research and Business Foundation SUNGKYUNKWAN UNIVERSITY, priority 2010, published 2015)
